Assays:
[1] = molecular target: T1, HSA (α-amylase derived from human salivary gland) (Homo sapiens, UniProt P0DUB6); assay: Inhibition of human α-amylase activity in vitro (blue starch, Neo·Amylase Test), HSA; format: biochemical; details: final concentration of inhibitor reducing 50% of the activity of the HSA solution; 37° C., 30 minutes
T1 construct: purchased International Reagents Corp., Japan Calibzyme·AMY
T1 sequence (P0DUB6 16-511): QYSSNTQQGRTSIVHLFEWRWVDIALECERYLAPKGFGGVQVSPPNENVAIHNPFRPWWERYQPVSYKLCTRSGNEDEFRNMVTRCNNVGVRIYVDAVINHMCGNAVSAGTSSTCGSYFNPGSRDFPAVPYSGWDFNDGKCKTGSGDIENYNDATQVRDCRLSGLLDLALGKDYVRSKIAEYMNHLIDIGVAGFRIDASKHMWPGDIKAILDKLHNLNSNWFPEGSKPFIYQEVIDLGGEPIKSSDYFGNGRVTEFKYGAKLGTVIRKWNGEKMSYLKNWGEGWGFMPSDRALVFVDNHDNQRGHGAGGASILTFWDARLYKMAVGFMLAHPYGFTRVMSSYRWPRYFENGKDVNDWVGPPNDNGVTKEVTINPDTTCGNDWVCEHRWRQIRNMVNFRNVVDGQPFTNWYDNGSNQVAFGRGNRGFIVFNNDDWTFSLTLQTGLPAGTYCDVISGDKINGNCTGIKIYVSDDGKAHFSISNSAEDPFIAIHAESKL
Experimental: (§1) Purified water was added to commercial HPA and HSA to dissolve them to a concentration of 350 IU/1 to prepare an α-amylase solution. “Calibzyme·AMY” (produced by International Reagents Corp., Japan) was used as this commercial human α-amylase. The α-amylase activity was determined with reference to the calibration curves of a commercial α-amylase determining reagent “Neo·Amylase Test, Daiichi” (produced by Daiichi Pure Chemicals Co., Ltd., Japan).
(§2) To 100 μl of the HPA or HSA solution were added 3.0 ml of purified water, 1.0 ml of inhibitor solution and one tablet of blue starch of “Neo·Amylase Test, Daiichi” (produced by Daiichi Pure Chemicals Co., Ltd., Japan). After stirring by a mixer for about 10 seconds, the mixture was warmed at 37° C. for 30 minutes and then further stirred by adding 1.0 ml of a 0.5 N sodium hydroxide solution to cease the reaction, after which the solution was centrifuged (1,500 G, 5 min.) and absorbance of the supernatant at 620 nm was measured. As a blank, purified water was used instead of the inhibitor solution.

mice [Crj:CD-1 (ICR)] = assay: Anti-diabetic activity: blood glucose level after oral corn starch loading in mice; format: in vivo; details: mice unfed 20 hours; oral DOGGDN 10 mg, 5 mg and 1 mg with 2,000 mg corn starch per kg; 0.5-4.0 hours; t-test; FIG. 1
Experimental: Commercially available healthy mice [Crj:CD-1 (ICR) available from Japan Charles River Co., Ltd.
Blood was collected from the orbital veniplex of each mouse just before administration and after the lapse of 0.5 hour, 1.0 hour, 1.5 hours, 2.0 hours, 3.0 hours and 4.0 hours after administration, and the concentration of glucose in the blood [blood glucose level (mg/dl)] was measured to examine the inhibitory effect against rise of blood glucose level after intake of corn starch, i.e. the anti-diabetic action. The inhibitory effect against rise of blood sugar level was judged by the t-test. The glucose concentration in the blood was determined using a blood glucose level analyzer “[sequence]” [mfd. by Bayer Sankyo Co., Ltd.].

[2] = molecular target: T2, HPA (α-amylase derived from human pancreatic juice) (Homo sapiens, UniProt P04746); assay: Inhibition of human α-amylase activity in vitro (blue starch, Neo·Amylase Test), HPA; format: biochemical; details: final concentration of inhibitor reducing 50% of the activity of the HPA solution; 37° C., 30 minutes
T2 construct: purchased International Reagents Corp., Japan Calibzyme·AMY
T2 sequence (P04746 16-511): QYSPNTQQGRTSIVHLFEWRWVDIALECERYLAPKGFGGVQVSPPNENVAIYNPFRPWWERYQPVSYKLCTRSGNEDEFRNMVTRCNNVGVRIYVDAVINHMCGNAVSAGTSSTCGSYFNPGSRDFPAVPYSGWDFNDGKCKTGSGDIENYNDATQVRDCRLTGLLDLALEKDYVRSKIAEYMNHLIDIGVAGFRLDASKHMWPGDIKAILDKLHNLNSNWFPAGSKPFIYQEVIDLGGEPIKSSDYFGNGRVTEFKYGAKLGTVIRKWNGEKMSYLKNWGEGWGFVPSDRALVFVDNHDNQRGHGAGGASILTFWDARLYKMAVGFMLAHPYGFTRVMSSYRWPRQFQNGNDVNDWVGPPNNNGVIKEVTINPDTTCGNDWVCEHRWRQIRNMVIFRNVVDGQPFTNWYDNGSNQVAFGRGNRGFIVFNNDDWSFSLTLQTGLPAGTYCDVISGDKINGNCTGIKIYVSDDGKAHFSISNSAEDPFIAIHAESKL
Experimental: as §1, §2

| IC50 [1] | IC50 [2] | SMILES | rise of blood glucose level as compared with the control group (mice [Crj:CD-1 (ICR)]) |
| --- | --- | --- | --- |
| 0.03 mM |  | CC1OC(OC2C(CO)OC(OC3C(CO)NCC(O)C3O)C(O)C2O)C(O)C(O)C1O [DOGGDN, O-(6-deoxy)-α-D-glucopyranosyl-(1→4)-O-(α-D-glucopyranosyl)-(1→4)-deoxynojirimycin] | reduced significantly |
| 0.03 mM | 0.05 mM | CC1OC(OC2C(CO)OC(OC3C(CO)NCC(O)C3O)C(O)C2O)C(O)C(O)C1OC1OC(CO)C(O)C(O)C1O [GDOGGDN, O-(α-D-glucopyranosyl)-(1→4)-O-(6-deoxy-α-D-glucopyranosyl)-(1→4)-O-(α-D-glucopyranosyl)-(1→4)-deoxynojirimycin] |  |
| 0.26 mM | 0.26 mM | OCC1NCC(O)C(O)C1OC1OC(CO)C(OC2OC(CO)C(O)C(O)C2O)C(O)C1O (stereo not drawn) [GGDN, Maltosyl-deoxynojirimycin, reference compound] |  |

Source: US6939858B2, “Malto-oligosaccharide derivatives and use thereof” (Kikkoman Corporation, priority 2000, dated 2005)
